Measured values: patent US8492426B1, “Use of carvedilol for treatment of diabetes mellitus” (priority 2012, dated 2013)

Assays:
[1] = system: patients with diabetes mellitus already on insulin; assay: Group 1: diabetes mellitus patients already on insulin with uncontrolled blood sugar, prescribed Carvedilol with diet; type: in vivo, human
Experimental: Data has been collected utilizing the various methods described herein and included for purposes of showing results and further exemplifying the preferred embodiments of this invention. A study was performed on two groups: Group 1 and Group 2. Both groups included patients with diabetes mellitus and a history of uncontrolled blood sugar. The patients of each group were between the ages of 40 and 85 and consisted of both males and females and various ethnicities. Group 1 consisted of patients that were already on insulin (humulin mix, novolog mix, etc.) and who were unable to control their blood sugar. The patients in Group 2 were taking oral medications, were unable to control their blood sugar, and needed insulin to regulate their disease. Normal blood sugar levels were considered to be 120 mg % (mg % is milligram per 100 cc blood), which was equivalent to 6.0 HbA1c before meals or while fasting. After the first visit and examination, the patients' blood sugar and HbA1c levels were reviewed. […] Then patients were requested to report their blood sugar weekly. […] HbA1c levels were checked approximately 2-3 months after controlling the blood sugar. Group 1 data is presented below for patients with Type II diabetes mellitus who were already taking insulin and were unable to control their blood sugar. The data includes blood sugar and HbA1c levels before and after taking Carvedilol. • 1. JBM-65-M was first seen in January 2012. Their HbA1c was more than 9.0 and fasting plasma glucose was 282 mg %. They were taking 35 units at night of Lente insulin and regular insulin before each meal at a dosage of 10-30 units, on a sliding scale. They began taking an effective dosage of Carvedilol with a diet in February 2012. […] BS-81-F was taking 36 units of Humulin N twice a day in February 2012. Their HbA1c was 7.6 and mean plasma glucose was 171 mg %. They began taking an effective dosage of Carvedilol immediately. In April 2012 their HbA1c was 6.5 and their mean plasma glucose was 140 mg %. […] patient four is a Type I diabetic with two episodes of myocardial infarction and four stents post Percutaneous Transluminal Coronary Angioplasty (PTCA). In January 2012 […] HbA1c was 8.2 with a mean […] glucose of 203 mg %. They were taking 400 units of Novolog mix 70/30 in two divided doses. After Carvedilol and an improved diet, the dose of insulin has been reduced to a total of 90 units a day in two divided doses. Their HbA1c is the same but recent blood sugar was 134 mg %. • 4. […] They were taking Novolog 70/30 40 units twice a day. They were started on Carvedilol with an improved diet. […] Currently they are reporting a plasma blood glucose below 120 mg %. • 5. […] They were taking Novlog mix 70/30 20 units twice a day. […] Group 2

[2] = system: Type II diabetes mellitus patients; assay: Group 2: Type II diabetes mellitus patients uncontrolled on diet and oral medication, Carvedilol used in place of insulin; type: in vivo, human
Experimental: Data has been collected utilizing the various methods described herein and included for purposes of showing results and further exemplifying the preferred embodiments of this invention. A study was performed on two groups: Group 1 and Group 2. Both groups included patients with diabetes mellitus and a history of uncontrolled blood sugar. The patients of each group were between the ages of 40 and 85 and consisted of both males and females and various ethnicities. Group 1 consisted of patients that were already on insulin (humulin mix, novolog mix, etc.) and who were unable to control their blood sugar. The patients in Group 2 were taking oral medications, were unable to control their blood sugar, and needed insulin to regulate their disease.
Normal blood sugar levels were considered to be 120 mg % (mg % is milligram per 100 cc blood), which was equivalent to 6.0 HbA1c before meals or while fasting. After the first visit and examination, the patients' blood sugar and HbA1c levels were reviewed. […] Then patients were requested to report their blood sugar weekly. […] HbA1c levels were checked approximately 2-3 months after controlling the blood sugar.
Group 2 consisted of Type II diabetes mellitus patients who could not control their blood sugar on diet nor oral medication and would need to start insulin. Carvedilol was used in place of insulin to control blood sugar as well as other anti-diabetic oral medications. • 1. […] Sitagliptin was then discontinued and the hypoglycemia subsequently disappeared. […] The last recorded HbA1c was 6.8 • 2. patient three had poorly controlled blood sugar but managed an HbA1c of 8.0 and mean fasting glucose of 183 mg %. They were taking three oral medications: Metformin 1000 mg BID, Sitagliptin 100 mg daily and Sulfonylurea. They were started on Carvedilol and their blood sugar came down to 90 mg %. […] Their HbA1c level is 6.5 • 3. […] They were prescribed Metformin and Glyburide Micro. They were also given Bayetta, however their blood sugar remained uncontrolled. […] Their HbA1c level is 8.4 • 4. […] The patient also suffered from severe Peripheral Neuritis. Their HbA1c was 10.2 in December 2011. The patient was taking Metformin 1000 mg twice a day, Sitagliptin 100 mg daily and Glyburide Micro 6 mg twice a day. The patient was started on Carvedilol in February 2012. Their HbA1c in late March 2012 was down to 8.2 with a mean plasma glucose of 189 mg %. […] Their HbA1c is now 7.8. • 5. […] They have been on Janumet […] twice a day, Glymeperide which was changed to Glyburide Micro 3 mg twice daily. […] Carvedilol was added to their regimen and their blood sugar was recently reported at 81 mg %. […] Their HbA1c level is 7.1

For `COc1ccccc1OCCNCC(O)COc1cccc2[nH]c3ccccc3c12` (racemic) [Carvedilol, (±)-1-(Carbazol-4-yloxy-3-[[2-(o-methoxyphenoxy-)ethyl]amino]-2-propanol], which fasting plasma glucose ([1]; patient five, April 2012, Carvedilol with diet since February 2012, before: 282 mg %) is on record?
Its fasting plasma glucose is 122 mg %.

What about the HbA1c ([1]; patient five, April 2012, Carvedilol with diet since February 2012, before: more than 9.0) of the same molecule?
The HbA1c was 5.5.

What about the “insulin use after Carvedilol” value ([1]; patient five, by April 2012, before: 35 units Lente at night plus 10-30 units regular insulin before each meal) of the same molecule?
Its value is “taken off insulin completely”.

And the “dose of insulin after Carvedilol” value ([1]; patient four, Type I diabetic, Carvedilol and improved diet, two divided doses, before: 400 units Novolog mix 70/30)?
Its value is 90 units a day.

And the HbA1c ([1]; patient four, Type I diabetic, after Carvedilol and improved diet, before: 8.2)?
The HbA1c was “the same”.

What about the recent blood sugar ([1]; patient four, Type I diabetic, after Carvedilol and improved diet, before: mean plasma glucose 203 mg %) of the same molecule?
The recent blood sugar was 134 mg %.

And the mean plasma glucose ([1]; patient nine, April 2012, Carvedilol since February 2012, before: 171 mg %)?
Its mean plasma glucose is 140 mg %.

What about the HbA1c ([1]; patient nine, April 2012, Carvedilol since February 2012, before: 7.6) of the same molecule?
Its HbA1c is 6.5.

And the “insulin use after Carvedilol” value ([1]; patient nine, by April 2012, before: 36 units Humulin N twice a day)?
The value was “taken off of insulin completely”.

What about the plasma glucose ([1]; patient seven, renal failure, after five weeks on Carvedilol, off insulin, before: 249 mg %) of the same molecule?
Its plasma glucose is “below 120 mg %”.

What about the “HbA1c corresponding to plasma glucose” value ([1]; patient seven, after five weeks on Carvedilol, before: 10.3) of the same molecule?
Its value is 6.0.

And the “insulin use after Carvedilol” value ([1]; patient seven, after five weeks on Carvedilol, before: Novlog mix 70/30 20 units twice a day)?
Its value is “taken off insulin”.

And the HbA1c ([1]; patient two, April 2012, Carvedilol with improved diet, off insulin, before (December 2011): 11.4)?
The HbA1c was 8.6.

And the plasma blood glucose ([1]; patient two, April 2012, before: 280 mg %)?
The plasma blood glucose was 200 mg %.

What about the “insulin use after Carvedilol” value ([1]; patient two, before: Novolog 70/30 40 units twice a day) of the same molecule?
The value was “came off of insulin”.

And the plasma blood glucose ([1]; patient two, currently reported)?
Its plasma blood glucose is “below 120 mg %”.

And the “other anti-diabetic medication after Carvedilol” value (shortened to “other anti-diabetic medication”) ([2]; patient -76)?
Its value is “able to stop Glyburide Micro”.

And the blood sugar ([2]; patient -76, Carvedilol added to regimen, before: 273 mg % after cortisone shot, mean plasma glucose 163 mg %)?
Its blood sugar is 81 mg %.

And the HbA1c ([2]; patient -76, on Carvedilol, before: 8.3)?
Its HbA1c is 7.1.

And the HbA1c ([2]; patient eight, started Carvedilol recently, before: 8.5)?
Its HbA1c is 8.4.

What about the blood sugar ([2]; patient eight, started Carvedilol recently, before: fasting plasma glucose 197 mg %, uncontrolled on Metformin, Glyburide Micro, Bayetta) of the same molecule?
Its blood sugar is “reached normal levels”.

And the adverse effect ([2]; patient one, Carvedilol taken together with Sitagliptin, disappeared after Sitagliptin was discontinued)?
Its adverse effect is “hypoglycemia”.

What about the “last recorded HbA1c” value ([2]; patient one, Carvedilol, Sitagliptin discontinued) of the same molecule?
The value was 6.8.

And the blood sugar control ([2]; patient one, Carvedilol, Sitagliptin discontinued, before: blood sugar 200 mg %)?
The blood sugar control was “controlled the patient's blood sugar”.

And the “other anti-diabetic medication” value ([2]; patient six)?
Its value is “stopped taking Glyburide Micro”.

What about the mean plasma glucose ([2]; patient six, late March 2012, Carvedilol since February 2012) of the same molecule?
Its mean plasma glucose is 189 mg %.

What about the HbA1c ([2]; patient six, late March 2012, Carvedilol since February 2012, before (December 2011): 10.2) of the same molecule?
The HbA1c was 8.2.

And the blood sugar ([2]; patient six, more recently reported)?
The blood sugar was 95 mg %.

What about the HbA1c ([2]; patient six, now, after stopping Glyburide Micro) of the same molecule?
The HbA1c was 7.8.

And the “other anti-diabetic medication” value ([2]; patient three)?
The value was “discontinued use of Sitagliptin”.

What about the blood sugar ([2]; patient three, Carvedilol added to Metformin, Sitagliptin, Sulfonylurea, before: mean fasting glucose 183 mg %) of the same molecule?
The blood sugar was 90 mg %.

And the HbA1c ([2]; patient three, on Carvedilol, Sitagliptin discontinued, before: 8.0)?
The HbA1c was 6.5.
